# From patent US20090181963A1, “3H-[1,2,3]TRIAZOLO[4,5-D]PYRIMIDINE COMPOUNDS, THEIR USE AS mTOR KINASE AND PI3 KINASE INHIBITORS, AND THEIR [sequence]” (Wyeth, priority 2008, published 2009)
# Assays:
# [1] = biological target: PI3 Kinase α (Homo sapiens, UniProt P42336); experiment: Fluorescence polarization assay for PI3K (PI3 Kinase α); type: biochemical; details: diC8-PI(4,5)P2 substrate, 25 μM ATP, one hour at 25° C.
# Method: Nunc 384 well black polypropylene fluorescent plates were used for PI3K assays. Reactions were quenched by the addition of EDTA to a final concentration of 10 μM. Final reaction volumes were 10 ml. […] Reactions were allowed to proceed for one hour at 25° C. After I hour, GST-tagged GRP1 (general receptor for phosphoinositides) PH domain fusion protein was added to a final concentration of 100 nM, and BODIPY-TMRI(1,3,4,5)P4 (Echelon) was also added to a final concentration of 5 nM. Final sample volumes were 25 μl with a final DMSO concentration of 0.8%. Assay Plates were read on PerkinElmer Envision plate readers with appropriate filters for Tamra [BODIPY-TMRI(1,3,4,5)P4]. Data obtained were used to calculate enzymatic activity and enzyme inhibition by inhibitor compounds.
# [2] = biological target: PI3 Kinase γ (Homo sapiens, UniProt P48736); experiment: Fluorescence polarization assay for PI3K (PI3 Kinase γ); type: biochemical; details: diC8-PI(4,5)P2 substrate, 25 μM ATP, one hour at 25° C.
# PI3 Kinase γ, sequence (P48736 whole entry): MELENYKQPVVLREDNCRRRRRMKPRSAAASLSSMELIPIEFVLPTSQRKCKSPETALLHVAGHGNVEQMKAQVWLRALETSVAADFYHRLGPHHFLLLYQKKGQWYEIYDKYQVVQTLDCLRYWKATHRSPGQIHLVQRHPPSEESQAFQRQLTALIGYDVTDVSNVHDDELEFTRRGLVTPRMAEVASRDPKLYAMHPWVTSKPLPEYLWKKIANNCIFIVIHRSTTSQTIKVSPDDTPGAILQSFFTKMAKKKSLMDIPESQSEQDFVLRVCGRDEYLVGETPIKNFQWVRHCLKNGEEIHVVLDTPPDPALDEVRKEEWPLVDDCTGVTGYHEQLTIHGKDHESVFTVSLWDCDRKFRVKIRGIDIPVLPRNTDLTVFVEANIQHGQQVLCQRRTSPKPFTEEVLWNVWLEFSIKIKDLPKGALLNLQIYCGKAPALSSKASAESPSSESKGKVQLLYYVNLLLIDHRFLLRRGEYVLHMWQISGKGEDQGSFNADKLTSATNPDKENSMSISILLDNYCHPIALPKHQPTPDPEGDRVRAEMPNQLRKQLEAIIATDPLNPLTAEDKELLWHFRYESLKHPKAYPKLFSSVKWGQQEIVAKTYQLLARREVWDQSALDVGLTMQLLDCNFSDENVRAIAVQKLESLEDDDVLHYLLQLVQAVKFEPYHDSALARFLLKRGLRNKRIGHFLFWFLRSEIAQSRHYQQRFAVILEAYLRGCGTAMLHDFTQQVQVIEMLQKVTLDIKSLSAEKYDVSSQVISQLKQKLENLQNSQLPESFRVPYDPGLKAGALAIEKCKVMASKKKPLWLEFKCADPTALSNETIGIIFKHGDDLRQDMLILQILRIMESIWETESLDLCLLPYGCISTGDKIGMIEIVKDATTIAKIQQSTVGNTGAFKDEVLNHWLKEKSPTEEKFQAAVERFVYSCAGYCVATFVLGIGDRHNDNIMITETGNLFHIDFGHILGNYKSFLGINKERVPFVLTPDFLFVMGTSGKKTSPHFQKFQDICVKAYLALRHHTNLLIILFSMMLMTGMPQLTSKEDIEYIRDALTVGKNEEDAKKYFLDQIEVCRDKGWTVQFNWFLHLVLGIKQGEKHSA
# PI3 Kinase α, sequence (P42336 whole entry): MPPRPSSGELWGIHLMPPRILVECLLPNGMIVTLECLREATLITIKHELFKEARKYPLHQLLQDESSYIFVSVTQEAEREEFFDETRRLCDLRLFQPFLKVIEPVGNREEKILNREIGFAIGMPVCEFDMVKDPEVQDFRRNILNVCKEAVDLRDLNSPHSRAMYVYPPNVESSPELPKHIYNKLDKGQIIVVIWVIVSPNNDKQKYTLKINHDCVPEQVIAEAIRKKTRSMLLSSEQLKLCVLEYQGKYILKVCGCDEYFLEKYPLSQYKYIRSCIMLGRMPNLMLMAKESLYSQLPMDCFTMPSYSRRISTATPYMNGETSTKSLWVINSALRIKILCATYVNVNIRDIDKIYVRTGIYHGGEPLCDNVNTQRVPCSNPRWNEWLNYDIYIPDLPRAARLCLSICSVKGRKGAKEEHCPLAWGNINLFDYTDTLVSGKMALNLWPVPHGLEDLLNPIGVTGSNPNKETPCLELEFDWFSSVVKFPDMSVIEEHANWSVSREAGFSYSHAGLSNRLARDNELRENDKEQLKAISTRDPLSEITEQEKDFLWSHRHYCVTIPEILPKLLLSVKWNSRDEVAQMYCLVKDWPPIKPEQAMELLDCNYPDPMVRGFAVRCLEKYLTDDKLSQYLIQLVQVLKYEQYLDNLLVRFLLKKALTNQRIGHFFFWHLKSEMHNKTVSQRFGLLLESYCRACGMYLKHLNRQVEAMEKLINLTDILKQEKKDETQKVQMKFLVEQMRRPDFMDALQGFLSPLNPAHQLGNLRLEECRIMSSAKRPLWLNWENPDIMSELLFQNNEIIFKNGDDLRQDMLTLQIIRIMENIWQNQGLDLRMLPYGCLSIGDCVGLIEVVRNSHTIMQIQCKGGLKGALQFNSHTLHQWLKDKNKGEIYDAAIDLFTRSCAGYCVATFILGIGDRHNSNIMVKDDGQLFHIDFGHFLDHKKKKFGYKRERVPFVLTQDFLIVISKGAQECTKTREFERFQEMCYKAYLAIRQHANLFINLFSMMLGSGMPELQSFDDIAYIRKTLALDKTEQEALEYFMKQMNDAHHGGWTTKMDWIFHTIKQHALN
# PI3 Kinase α, sequence (P27986 whole entry partner): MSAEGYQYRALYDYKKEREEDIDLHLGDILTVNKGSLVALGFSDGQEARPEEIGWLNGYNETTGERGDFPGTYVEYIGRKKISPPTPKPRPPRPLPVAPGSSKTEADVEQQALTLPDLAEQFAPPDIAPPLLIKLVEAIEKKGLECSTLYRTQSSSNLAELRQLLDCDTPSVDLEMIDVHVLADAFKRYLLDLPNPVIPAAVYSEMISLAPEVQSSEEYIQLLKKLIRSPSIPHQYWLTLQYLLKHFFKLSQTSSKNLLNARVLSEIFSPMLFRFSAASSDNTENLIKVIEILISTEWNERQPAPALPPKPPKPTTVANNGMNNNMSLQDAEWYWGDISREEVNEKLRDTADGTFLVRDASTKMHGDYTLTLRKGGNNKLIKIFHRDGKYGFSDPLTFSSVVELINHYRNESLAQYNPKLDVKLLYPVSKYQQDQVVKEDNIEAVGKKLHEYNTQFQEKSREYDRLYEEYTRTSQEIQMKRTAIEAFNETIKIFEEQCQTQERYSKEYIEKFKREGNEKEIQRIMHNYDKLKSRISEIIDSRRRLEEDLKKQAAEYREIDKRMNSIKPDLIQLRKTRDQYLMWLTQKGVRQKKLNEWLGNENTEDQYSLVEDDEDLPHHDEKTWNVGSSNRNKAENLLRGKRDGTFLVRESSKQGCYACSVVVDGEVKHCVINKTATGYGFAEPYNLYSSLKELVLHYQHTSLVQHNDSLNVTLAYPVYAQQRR
Structure (SMILES),IC50 [1] [nM],IC50 [2] [nM]
"O=C(c1ccncc1)N1CCN(CCn2nnc3c(N4CCOCC4)nc(-c4cccc(O)c4)nc32)CC1 [Example 103, 3-{3-[2-(4-isonicotinoylpiperazin-1-yl)ethyl]-7-morpholin-4-yl-3H-[1,2,3]triazolo[4,5-d]pyrimidin-5-yl}phenol]",987,5050
"CCn1nnc2c(N3CCOCC3)nc(-c3ccc(NC(=O)Nc4ccc(C(=O)N(C)CCN(C)C)cc4)cc3)nc21 [Example 45, N-[2-(dimethylamino)ethyl]-4-({[4-(3-ethyl-7-morpholin-4-yl-3H-[1,2,3]triazolo[4,5-d]pyrimidin-5-yl)phenyl]carbamoyl}amino)-N-methylbenzamide]",< 2.2,11.3
"O=C(c1ccc(Cn2nnc3c(N4CCOCC4)nc(-c4cccc(O)c4)nc32)cc1)N1CCN(c2ccccc2)CC1 [Example 229, 3-(7-morpholin-4-yl-3-{4-[(4-phenylpiperazin-1-yl)carbonyl]benzyl}-3H-[1,2,3]triazolo[4,5-d]pyrimidin-5-yl)phenol]",286,10200
"CNC(=O)Nc1ccc(-c2nc(N3CCOCC3)c3nnn(C(C)C)c3n2)cc1 [Example 91, 1-[4-(3-isopropyl-7-morpholin-4-yl-3H-[1,2,3]triazolo[4,5-d]pyrimidin-5-yl)-phenyl]-3-methyl-urea]",41.5,409
"CC(C)n1nnc2c(N3CCOCC3)nc(-c3ccc(NC(=O)Nc4ccc(N)cc4)cc3)nc21 [Example 280, 1-(4-aminophenyl)-3-[4-(3-isopropyl-7-morpholin-4-yl-3H-[1,2,3]triazolo[4,5-d]pyrimidin-5-yl)phenyl]urea]",,7.5
"CC(C)n1nnc2c(N3CCOCC3)nc(-c3ccc(NC(=O)Nc4ccc([N+](=O)[O-])cc4)cc3)nc21 [Example 278, 1-{4-[3-(1-methylethyl)-7-morpholin-4-yl-3H-[1,2,3]triazolo[4,5-d]pyrimidin-5-yl]phenyl}-3-(4-nitrophenyl)urea]",,21.5
"CC(C)n1nnc2c(N3CCOCC3)nc(-c3ccc(NC(=O)Nc4ccc(C(=O)N5CCN(C)CC5)cc4)cc3)nc21 [Example 257, 1-{4-[3-(1-methylethyl)-7-morpholin-4-yl-3H-[1,2,3]triazolo[4,5-d]pyrimidin-5-yl]phenyl}-3-{4-[(4-methylpiperazin-1-yl)carbonyl]phenyl}urea]",,10
"CCn1nnc2c(N3CCOCC3)nc(-c3ccc(NC(=O)Nc4ccc(C(=O)N5CCN(C)CC5)nc4)cc3)nc21 [Example 289, 1-[4-(3-ethyl-7-morpholin-4-yl-3H-[1,2,3]triazolo[4,5-d]pyrimidin-5-yl)phenyl]-3-{6-[(4-methylpiperazin-1-yl)carbonyl]pyridin-3-yl}urea]",,6
"CCn1nnc2c(N3CCOCC3)nc(-c3ccc(NC(=O)Nc4ccc([N+](=O)[O-])cc4)cc3)nc21 [Example 247, 1-[4-(3-ethyl-7-morpholin-4-yl-3H-[1,2,3]triazolo[4,5-d]pyrimidin-5-yl)phenyl]-3-(4-nitrophenyl)urea]",,15
"CCn1nnc2c(N3CCOCC3)nc(-c3ccc(NC(=O)Nc4ccc(NCc5ccc(F)nc5)cc4)cc3)nc21 [Example 254, 1-[4-(3-ethyl-7-morpholin-4-yl-3H-[1,2,3]triazolo[4,5-d]pyrimidin-5-yl)phenyl]-3-(4-{[(6-fluoropyridin-3-yl)methyl]amino}phenyl)urea]",,7.5
"CCn1nnc2c(N3CCOCC3)nc(-c3ccc(NC(=O)Nc4ccc(C(=O)OC)nc4)cc3)nc21 [Example 287, Methyl 5-({[4-(3-ethyl-7-morpholin-4-yl-3H-[1,2,3]triazolo[4,5-d]pyrimidin-5-yl)phenyl]carbamoyl}amino)pyridine-2-carboxylate]",,91.5
"CC(C)n1nnc2c(N3CCOCC3)nc(-c3ccc(NC(=O)Nc4ccc(NS(C)(=O)=O)cc4)cc3)nc21 [Example 279, N-[4-({[4-(3-isopropyl-7-morpholin-4-yl-3H-[1,2,3]triazolo[4,5-d]pyrimidin-5-yl)phenyl]carbamoyl}amino)phenyl]methanesulfonamide]",,12

# Now those with a lower IC50 [2], led by results:
IC50 [1] [nM],IC50 [2] [nM],Structure (SMILES)
,5.5,"CC(C)n1nnc2c(N3CCOCC3)nc(-c3ccc(NC(=O)Nc4ccc(N5CCN(C)CC5)cc4)cc3)nc21 [Example 277, 1-{4-[3-(1-methylethyl)-7-morpholin-4-yl-3H-[1,2,3]triazolo[4,5-d]pyrimidin-5-yl]phenyl}-3-[4-(4-methylpiperazin-1-yl)phenyl]urea]"
,5,"CCn1nnc2c(N3CCOCC3)nc(-c3ccc(NC(=O)Nc4ccc(NCc5ccc(OC)nc5)cc4)cc3)nc21 [Example 255, 1-[4-(3-ethyl-7-morpholin-4-yl-3H-[1,2,3]triazolo[4,5-d]pyrimidin-5-yl)phenyl]-3-(4-{[(6-methoxypyridin-3-yl)methyl]amino}phenyl)urea]"
,4.45,"CCn1nnc2c(N3CCOCC3)nc(-c3ccc(NC(=O)Nc4ccc(NC(=O)NCCOC)cc4)cc3)nc21 [Example 276, 1-[4-(3-ethyl-7-morpholin-4-yl-3H-[1,2,3]triazolo[4,5-d]pyrimidin-5-yl)phenyl]-3-(4-{[(2-methoxyethyl)carbamoyl]amino}phenyl)urea]"
,4.35,"CCn1nnc2c(N3CCOC[C@@H]3C)nc(-c3ccc(NC(=O)Nc4ccc(C(=O)NCCN5CCCCC5)cc4)cc3)nc21 [Example 284, 4-{[(4-{3-ethyl-7-[(3S)-3-methylmorpholin-4-yl]-3H-[1,2,3]triazolo[4,5-d]pyrimidin-5-yl}phenyl)carbamoyl]amino}-N-(2-piperidin-1-ylethyl)benzamide]"
,4,"CCn1nnc2c(N3CCOCC3)nc(-c3ccc(NC(=O)Nc4ccc(N5CCN(C)CC5)cc4)cc3)nc21 [Example 259, 1-[4-(3-ethyl-7-morpholin-4-yl-3H-[1,2,3]triazolo[4,5-d]pyrimidin-5-yl)phenyl]-3-[4-(4-methylpiperazin-1-yl)phenyl]urea]"
,3.83,"CCn1nnc2c(N3CCOCC3)nc(-c3ccc(NC(=O)Nc4ccc(NCc5ccncc5)cc4)cc3)nc21 [Example 252, 1-[4-(3-ethyl-7-morpholin-4-yl-3H-[1,2,3]triazolo[4,5-d]pyrimidin-5-yl)phenyl]-3-{4-[(pyridin-4-ylmethyl)amino]phenyl}urea]"
,3.35,"CCn1nnc2c(N3CCOC[C@@H]3C)nc(-c3ccc(NC(=O)Nc4ccc(C(=O)NCCN5CCCC5)cc4)cc3)nc21 [Example 283, 4-{[(4-{3-ethyl-7-[(3S)-3-methylmorpholin-4-yl]-3H-[1,2,3]triazolo[4,5-d]pyrimidin-5-yl}phenyl)carbamoyl]amino}-N-(2-pyrrolidin-1-ylethyl)benzamide]"
,3.1,"CCn1nnc2c(N3CCOCC3)nc(-c3ccc(NC(=O)Nc4ccc(NC(=O)N5CCOCC5)cc4)cc3)nc21 [Example 263, N-[4-({[4-(3-ethyl-7-morpholin-4-yl-3H-[1,2,3]triazolo[4,5-d]pyrimidin-5-yl)phenyl]carbamoyl}amino)phenyl]morpholine-4-carboxamide]"
,2.8,"CCn1nnc2c(N3CCOC[C@@H]3C)nc(-c3ccc(NC(=O)Nc4ccc(C(=O)N5CCC(N(C)C)CC5)cc4)cc3)nc21 [Example 281, (S)-1-(4-(4-(dimethylamino)piperidine-1-carbonyl)phenyl)-3-(4-(3-ethyl-7-(3-methylmorpholino)-3H-[1,2,3]triazolo[4,5-d]pyrimidin-5-yl)phenyl)urea]"
